Experimental data taken from patent US7320975B2, “2-(2-pyridyl)-5-phenyl-6-aminopyrimidine, method and intermediate products for the production and use thereof for combating noxious fungi” (BASF Aktiengesellschaft, priority 2002, dated 2008).

Assay: Lipophilicity parameter log Pow by RP HPLC run time method (OECD test guidelines)
Type: physicochemical
Description: The determination of the lipophilicity parameter log Pow (Table I) was carried out in accordance with OECD test guidelines using the RP HPLC run time method.
To this end, a log k′/log Pow correlation curve based on ten reference substances was plotted and was validated with the help of the lipophilicity parameters of eight comparison substances established through the extraction method.
A commercially available reversed-phase C18 stationary phase was used as stationary phase. Chromatographic separation was carried out with methanol and a buffer solution as mobile phase at pH 7.4 under isocratic conditions.
The retention times of the standards tR were converted in accordance with equation Φ into the capacity factors k′, in which t0, as reaction time of the solvent unretarded on the reversed-phase C18 stationary phase, represents the dead time of the chromatographic system:
The linear correlation of the log k′ values with the log Pow values of the standards published in the appendix to the guidelines 92/69/EEC yields the correlation curve through linear regression.
The lipophilicity parameters log Pow of the analytes were after calculation of the logarithmic capacity factor log k′ interpolated from the correlation curve of the standards.

[1] = RP HPLC run time method (OECD test guidelines)
[2] = RP HPLC run time method, OECD test guidelines

Structure (SMILES)	log Pow [1]	log Pow [2]
Cc1cccc(-c2nc(Cl)c(-c3c(F)cc(F)cc3F)c(N3CCOCC3)n2)n1 [I-24]	log Pow 4.25	logPow 4.25
Cc1ccc(-c2c(Cl)nc(-c3ccccn3)nc2NC(C)C)c(F)c1 [I-94]	logP 4.8	logP 4.8
CC(C)[C@@H](C)Nc1nc(-c2ccccn2)nc(Cl)c1-c1c(F)cccc1F [I-84]	logP 5.0	logP 5.0
CC(C)Nc1nc(-c2ccccn2)nc(Cl)c1-c1c(F)cc(O)cc1F [I-70]	log.P 3.0	log.P 3.0
CCNc1nc(-c2ccccn2)nc(Cl)c1-c1ccc(F)cc1C [I-114]	logP 4.1	logP 4.1
CCN(CC)c1nc(-c2ncccc2C)nc(Cl)c1-c1c(F)cc(F)cc1F [I-117]	logP 4.6	logP 4.6
CCNc1nc(-c2ccccn2)nc(Cl)c1-c1ccc(C)cc1C [I-90]	logP 4.6	logP 4.6
C[C@H](Nc1nc(-c2ccccn2)nc(Cl)c1-c1c(F)cc(F)cc1F)C(C)(C)C [1-10]	log Pow 4.75	
C[C@H](Nc1nc(-c2ccccn2)nc(Cl)c1-c1c(F)cc(F)cc1F)C(F)(F)F [I-12]	log Pow 4.5	logPow 4.5
CCNc1nc(-c2ccccn2)nc(Cl)c1-c1c(F)cc(OC)cc1F [I-65]	logP 4.0	logP 4.0
CC(C)[C@H](C)Nc1nc(-c2ccccn2)nc(Cl)c1-c1c(F)cccc1F [I-82]	logP 5.0	logP 5.0

Results, then the molecule that gave them:

log Pow [1]	log Pow [2]	Structure (SMILES)
log Pow 3.59	logPow 3.59	CC(C)Nc1nc(-c2ccccn2)nc(Cl)c1-c1c(F)cccc1Cl [I-3]
log Pow 4.73	logPow 4.73	C=C(C)CN(CC)c1nc(-c2ccccn2)nc(Cl)c1-c1c(F)cccc1Cl [I-2]
logP 4.1	logP 4.1	CC(C)Nc1nc(-c2ccccn2)nc(Cl)c1-c1c(F)cccc1F [I-83]
log Pow 4.23	logPow 4.23	CCN(CC)c1nc(-c2ccccn2)nc(Cl)c1-c1c(F)cccc1Cl [I-5]
log Pow 4.8	logPow 4.8	C[C@@H](Nc1nc(-c2ccccn2)nc(Cl)c1-c1c(F)cccc1Cl)C(C)(C)C [I-7]
	logPow 4.08	CCN(CC)c1nc(-c2ccccn2)nc(Cl)c1-c1c(F)cc(F)cc1F [I-9]
logP 4.7	logP 4.7	CCN(CC)c1nc(-c2ccccn2)nc(Cl)c1-c1c(F)cccc1F [I-81]
logP 5.0	logP 5.0	CCN(CC)c1nc(-c2ccccn2)nc(Cl)c1-c1c(F)cc(OC)cc1F [I-64]
log Pow 4.08		CCN(CC)c1nc(-c2ccccn2)nc(Cl)c1-c1c(F)cc(F)cc1F [1-9]
